Laboratory results: patent US4160829A, “Antibacterial 1,2,4-oxadiazolylacetamido cephalosporins” (Gist-Brocades N.V., priority 1972, dated 1979)
≈ marks a conversion by molar mass, not a printed value. Read-outs that look alike come from different tables or passages of the source.

Experiments:
Bac.Subt.ATCC 6633 = assay: agar serial dilution test; assay type: cell-based, Bacillus subtilis; conditions: Bacillus subtilis, ATCC6633, 24 h, agar serial dilution, 24 hours, 37° C.; read-out: minimal inhibitory concentration (MIC)
Staph.aureus A 321 = assay: agar serial dilution test; assay type: cell-based, Staphylococcus aureus; conditions: Staphylococcus aureus, A321, 24 h, agar serial dilution, 24 hours, 37° C.; read-out: minimal inhibitory concentration (MIC)
Staph.aureus A 2000 [1] = assay: agar serial dilution test; assay type: cell-based, Staphylococcus aureus; conditions: Staphylococcus aureus, A2000, 24 h, agar serial dilution, 24 hours, 37° C.; read-out: minimal inhibitory concentration (MIC)
Staph.aureus A 2001 [2] = assay: agar serial dilution test; assay type: cell-based, Staphylococcus aureus; conditions: Staphylococcus aureus, A2001, 24 h, agar serial dilution, 24 hours, 37° C.; read-out: minimal inhibitory concentration (MIC)
Strep.haem. A 266 = assay: agar serial dilution test; assay type: cell-based, Streptococcus haemolyticus; conditions: Streptococcus; agar serial dilution, 24 hours, 37° C.; read-out: minimal inhibitory concentration (MIC)
Strep. faec. L 80 = assay: agar serial dilution test; assay type: cell-based, Streptococcus faecalis; conditions: Enterococcus faecalis; agar serial dilution, 24 hours, 37° C.; read-out: minimal inhibitory concentration (MIC)
Bruc.melit. A 488 = assay: microbe, parasite or virus in culture; assay type: cell-based; conditions: Brucella melitensis, 24 h, read-out: minimal inhibitory concentration (MIC)
Past.multo. A 723 = assay: agar serial dilution test; assay type: cell-based, Pasteurella multocida; conditions: Pasteurella multocida; agar serial dilution, 24 hours, 37° C.; read-out: minimal inhibitory concentration (MIC)
Kleb.pneum. A 809 = assay: agar serial dilution test; assay type: cell-based, Klebsiella pneumoniae; conditions: Klebsiella pneumoniae; agar serial dilution, 24 hours, 37° C.; read-out: minimal inhibitory concentration (MIC)
Salm.dubl. P 43 = assay: agar serial dilution test; assay type: cell-based, Salmonella dublin; conditions: Salmonella enterica, read-out: minimal inhibitory concentration (MIC)
Salm.typh. R 127 = assay: agar serial dilution test; assay type: cell-based; conditions: 24 h, 37° C., read-out: minimal inhibitory concentration (MIC)
Esch.coli U 20 = assay: agar serial dilution test; assay type: cell-based, Escherichia coli; conditions: Escherichia coli, U20; agar serial dilution, 24 hours, 37° C.; read-out: minimal inhibitory concentration (MIC)
Shig.equir. T 3 = assay: agar serial dilution test; assay type: cell-based; conditions: 24 h, 37° C., read-out: minimal inhibitory concentration (MIC)
Pseud.aerug. H 10 = assay: agar serial dilution test; assay type: cell-based; conditions: agar serial dilution, 24 hours, 37° C.; read-out: minimal inhibitory concentration (MIC)
Pseud.aerug. 2396 = assay: agar serial dilution test; assay type: cell-based; conditions: agar serial dilution, 24 hours, 37° C.; read-out: minimal inhibitory concentration (MIC)
[3] = system: Pseud.aerug. Wyeth A 1058; assay: agar serial dilution test; assay type: cell-based; conditions: agar serial dilution, 24 hours, 37° C.; read-out: minimal inhibitory concentration (MIC)
Prot.rettg. A 821 = assay: agar serial dilution test; assay type: cell-based, Proteus rettgeri; conditions: Providencia rettgeri, 24 h, agar serial dilution, 24 hours, 37° C.; read-out: minimal inhibitory concentration (MIC)
Prot.mirab. H 3 = assay: agar serial dilution test; assay type: cell-based, Proteus mirabilis; conditions: Proteus mirabilis
Prot.mirab. L 93 = assay: agar serial dilution test; assay type: cell-based, Proteus mirabilis; conditions: Proteus mirabilis
Prot.mirab. A 1200 = assay: agar serial dilution test; assay type: cell-based, Proteus mirabilis; conditions: Proteus mirabilis, 24 h, agar serial dilution, 24 hours, 37° C.; read-out: minimal inhibitory concentration (MIC)
Prot.morg. 2241 = assay: agar serial dilution test; assay type: cell-based; conditions: 24 h, agar serial dilution, 24 hours, 37° C.; read-out: minimal inhibitory concentration (MIC)
Staph.aureus A 355 [4] = assay: micro serial dilution test; assay type: cell-based, Staphylococcus aureus; conditions: Staphylococcus aureus, A355; micro serial dilution (in brackets), about 18 hours, 30° C. or 37° C.; penicillinase-producing strain; read-out: minimal inhibitory concentration (MIC)
Source text: Two drops of a stock solution of the test compound (antibiotic) in a known concentration were brought into the first hole of a test plate with 9 numbered holes with a sterile Pasteur pipette. After rinsing this pipette three times with a physiological NaCl-solution, two drops of a stock solution of the test organism in a culture medium were brought in all the holes except for hole 8. In the first hole, the solution of the tested compound had been half diluted, then by stirring the liquid in the first hole and adding two drops of this mixture to the second hole and so on until hole 8, dilutions of the test compound solution were obtained in geometrical progression. The hole 9 contained no antibiotic and served for checking the growth of the testogranism in a blank medium. The test plate was incubated at 30° C. or 37° C. for about 18 hours.
^1 Penicillinase-producing strain

Staph.aureus A 2000 [5] = assay: micro serial dilution test; assay type: cell-based, Staphylococcus aureus; conditions: Staphylococcus aureus, A2000, 18 h, micro serial dilution (in brackets), about 18 hours, 30° C. or 37° C.; read-out: minimal inhibitory concentration (MIC)
Staph.aureus A 2001 [6] = assay: micro serial dilution test; assay type: cell-based, Staphylococcus aureus; conditions: Staphylococcus aureus, A2001, 18 h, micro serial dilution (in brackets), about 18 hours, 30° C. or 37° C.; read-out: minimal inhibitory concentration (MIC)
Haem.infl. A 1030 = assay: micro serial dilution test; assay type: cell-based; conditions: 18 h, micro serial dilution (in brackets), about 18 hours, 30° C. or 37° C.; read-out: minimal inhibitory concentration (MIC)
Staph.aureus A 355 [7] = assay: agar serial dilution test; conditions: Staphylococcus aureus, A355, 24 h, read-out: minimal inhibitory concentration (MIC), agar serial dilution, 24 hours, 37° C.; penicillinase-producing strain
Dipl.pneum. L 54 = assay: agar serial dilution test; assay type: cell-based, Diplococcus pneumoniae; conditions: Streptococcus pneumoniae; agar serial dilution, 24 hours, 37° C.; read-out: minimal inhibitory concentration (MIC)
[8] = 24 h, read-out: minimal inhibitory concentration (MIC), agar serial dilution, 24 hours, 37° C.
[9] = agar serial dilution, 24 hours, 37° C.
[10] = agar serial dilution, 24 hours, 37° C., read-out: minimal inhibitory concentration (MIC)

Row | Structure (SMILES) | MIC (Bac.Subt.ATCC 6633) [µg/mL] | MIC (Staph.aureus A 321) [µg/mL] | MIC (Staph.aureus A 2000 [1]) [µg/mL] | MIC (Staph.aureus A 2001 [2]) [µg/mL] | MIC (Strep.haem. A 266) [µg/mL] | MIC (Strep. faec. L 80) [µg/mL] | MIC (Bruc.melit. A 488) [µg/mL] | MIC (Past.multo. A 723) [µg/mL] | MIC (Kleb.pneum. A 809) [µg/mL] | MIC (Salm.typh. R 127) [µg/mL] | MIC (Esch.coli U 20) [µg/mL] | MIC (Shig.equir. T 3) [µg/mL] | MIC (Pseud.aerug. H 10) [µg/mL] | MIC (Pseud.aerug. 2396) [µg/mL] | MIC [3] [µg/mL] | MIC (Prot.rettg. A 821) [µg/mL] | MIC (Prot.mirab. A 1200) [µg/mL] | MIC (Prot.morg. 2241) [µg/mL] | MIC (Haem.infl. A 1030) [µg/mL] | MIC (Staph.aureus A 355 [7]) [µg/mL] | also measured
1 | CC(=O)OCC1=C(C(=O)O)N2C(=O)[C@@H](NC(=O)C(C)c3nc(C)no3)[C@H]2SC1 (mixture of isomers) [Example 11I, dl-7-[α-methyl-(3-methyl-1,2,4-oxadiazol-5-yl)-acetamido]-cephalosporanic acid] | 0.12 | 1 | 1.5 | 1.5 | 0.25 | 75 | 6 | 1.5 | 6 | 25 | 50 | 12.5 | > 100 | > 100 | > 100 | 6 | 25 | > 100 | > 125 | 3 | MIC (Salm.dubl. P 43; 24 h): 12.5 µg/mL; MIC (Prot.mirab. H 3; [8]): 12.5 µg/mL; MIC (Prot.mirab. L 93; [8]): 12.5 µg/mL; MIC (Staph.aureus A 355 [4]): 1.2 µg/mL; MIC (Staph.aureus A 2000 [5]): 1.2 µg/mL; MIC (Staph.aureus A 2001 [6]): 1.2 µg/mL
2 | CC1=C(C(=O)O)N2C(=O)[C@@H](NC(=O)Cc3nc(-c4c(Cl)cccc4Cl)no3)[C@H]2SC1 [Example 11E, 7-{[3-(2,6-dichlorophenyl)-1,2,4-oxadiazol-5-yl]-acetamido}desacetoxycephalosporanic acid] | 1 (≈ 2.13 µM) | 0.5 (≈ 1.07 µM) | 0.75 (≈ 1.6 µM) | 1 (≈ 2.13 µM) | 0.25 (≈ 0.533 µM) | 12.5 (≈ 26.6 µM) | 50 (≈ 107 µM) | 25 (≈ 53.3 µM) | 100 (≈ 213 µM) | > 100 | > 100 | > 100 | > 100 | > 100 | > 100 | > 100 | > 100 | > 100 | 125 (≈ 266 µM) | 0.75 (≈ 1.6 µM) | MIC (Salm.dubl. P 43; [9]): > 100 µg/mL; MIC (Prot.mirab. H 3; [10]): > 100 µg/mL; MIC (Prot.mirab. L 93; [10]): > 100 µg/mL; MIC (Staph.aureus A 355 [4]): 0.25 µg/mL (≈ 0.533 µM); MIC (Staph.aureus A 2000 [5]): 3.7 µg/mL (≈ 7.88 µM); MIC (Staph.aureus A 2001 [6]): 0.25 µg/mL (≈ 0.533 µM)
3 | Cc1noc(C(C)C(=O)N[C@@H]2C(=O)N3[C@@H]2SC(C)(C)[C@@H]3C(=O)O)n1 (mixture of isomers) [Example 11H, dl-6[α-methyl-(3-methyl-1,2,4-oxadiazol-5-yl)-acetamido]-penicillanic acid] | 0.06 | 0.25 | 6 | 3 | 0.5 | 6 | 0.25 | 1.5 | > 100 | 100 | ≥ 100 | 25 | > 100 | > 100 | > 100 | 12.5 | > 100 | > 100 | 3.7 | 12.5 | MIC (Dipl.pneum. L 54): 0.25 µg/mL; MIC (Salm.dubl. P 43; [9]): 50 µg/mL; MIC (Prot.mirab. H 3; [10]): > 100 µg/mL; MIC (Prot.mirab. L 93; [10]): 6 µg/mL
4 | CCc1noc(C(C)C(=O)N[C@@H]2C(=O)N3[C@@H]2SC(C)(C)[C@@H]3C(=O)O)n1 (stereo partly drawn) [Example 11M, sodium 6-[α-methyl-(3-ethyl-1,2,4-oxadiazol-5-yl)-acetamido]-penicillanate H2 O] | 0.06 | 0.12 | 6 | 6 | 0.5 | 6 | 0.5 | 1 | > 100 | > 100 | > 100 | 50 | > 100 | > 100 | > 100 | 3 | > 100 | > 100 | 3.7 | 12.5 | MIC (Dipl.pneum. L 54): 0.5 µg/mL; MIC (Salm.dubl. P 43; [9]): 50 µg/mL; MIC (Prot.mirab. H 3; [10]): > 100 µg/mL; MIC (Prot.mirab. L 93; [10]): 25 µg/mL
5 | Cc1nc(CC(=O)N[C@@H]2C(=O)N3[C@@H]2SC(C)(C)[C@@H]3C(=O)O)no1 [Example 13, Sodium 6-[(5-methyl-1,2,4-oxadiazol-3-yl)-acetamido]-penicillanate] | 0.03 | 0.12 | 1.5 | 1.5 | 0.03 | 6 | 3 | 1 | > 100 | 25 | 50 | 3 | > 100 |  | > 100 | 6 | 25 | 100 | 125 | 10 | MIC (Dipl.pneum. L 54): 1 µg/mL; MIC (Salm.dubl. P 43; [9]): 3 µg/mL; MIC (Prot.mirab. H 3; [10]): 100 µg/mL; MIC (Prot.mirab. L 93; [10]): 3 µg/mL
6 | Cc1noc(C(C(=O)N[C@@H]2C(=O)N3[C@@H]2SC(C)(C)[C@@H]3C(=O)O)c2ccccc2)n1 (mixture of isomers) [Example 6, sodium DL-6-{[α-phenyl-3-methyl-1,2,4-oxadiazol-5-yl-]-acetamido}-penicillanate] | 0.03 | 0.25 | 1.5 | 1 |  | 1 | 1 | 1 | 100 | > 100 | 100 | 12.5 | > 100 | > 100 | > 100 | 3 | 100 | > 100 | 1.2 | 25 | MIC (Dipl.pneum. L 54): 0.06 µg/mL; MIC (Salm.dubl. P 43; [9]): 100 µg/mL; MIC (Prot.mirab. H 3; [10]): 100 µg/mL; MIC (Prot.mirab. L 93; [8]): 12.5 µg/mL; MIC (Staph.aureus A 355 [4]): 125 µg/mL; MIC (Staph.aureus A 2000 [5]): 23 µg/mL; MIC (Staph.aureus A 2001 [6]): 2.5 µg/mL
7 | CCc1noc(CC(=O)N[C@@H]2C(=O)N3C(C(=O)O)=C(COC(C)=O)CS[C@H]23)n1 [Example 11L, 7-[(3-ethyl-1,2,4-oxadiazol-5-yl)-acetamido]-cephalosporanic acid] | 0.12 (≈ 0.292 µM) | 0.25 (≈ 0.609 µM) | 1 (≈ 2.44 µM) | 1 (≈ 2.44 µM) | 0.25 (≈ 0.609 µM) | 50 (≈ 122 µM) | 6 (≈ 14.6 µM) | 2 (≈ 4.87 µM) | 1.5 (≈ 3.65 µM) | 6 (≈ 14.6 µM) | 6 (≈ 14.6 µM) | 3 (≈ 7.31 µM) | > 100 | > 100 | > 100 | 1 (≈ 2.44 µM) | 25 (≈ 60.9 µM) | > 100 | ≥ 125 | 1 (≈ 2.44 µM) | MIC (Dipl.pneum. L 54): 1 µg/mL (≈ 2.44 µM); MIC (Salm.dubl. P 43; [9]): 3 µg/mL (≈ 7.31 µM); MIC (Prot.mirab. H 3; [10]): 50 µg/mL (≈ 122 µM); MIC (Prot.mirab. L 93; [10]): 3 µg/mL (≈ 7.31 µM)
